ChEMBL document CHEMBL5241087, “A review on the structures and biological activities of anti-Helicobacter pylori agents” (Eur J Med Chem, 2021)
pIC50, pKd, pKi: −log10 of the molar value. Values after ≈ are worked out from the molar mass of the structure shown.

Experiments:
[1] = test system: Helicobacter pylori; experiment: Antibacterial activity against metronidazole-resistant Helicobacter pylori assessed as inhibition zone at 50 ug per disk by paper disk diffusion assay; assay type: functional; conditions: read-out: IZ
[2] = target: T1, Aminodeoxyfutalosine nucleosidase (Helicobacter pylori (strain J99 / ATCC 700824) (Campylobacter pylori J99), UniProt Q9ZMY2); experiment: Inhibition of Helicobacter pylori MTAN assessed as dissociation constant
T1 sequence (Q9ZMY2 whole entry): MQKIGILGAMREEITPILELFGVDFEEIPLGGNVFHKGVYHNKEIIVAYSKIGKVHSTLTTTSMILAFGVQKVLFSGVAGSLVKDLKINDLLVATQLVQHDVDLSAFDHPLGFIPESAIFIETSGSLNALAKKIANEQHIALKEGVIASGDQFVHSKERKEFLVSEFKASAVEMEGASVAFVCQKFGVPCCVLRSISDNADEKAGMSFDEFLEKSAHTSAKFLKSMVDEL

[3] = test system: Helicobacter pylori; experiment: Antimicrobial activity against Helicobacter pylori KA05 assessed as inhibition of bacterial growth by broth dilution method; assay type: functional
[4] = test system: Helicobacter pylori; experiment: Antibacterial activity against Helicobacter pylori; assay type: functional
[5] = test system: Helicobacter pylori; experiment: Antimicrobial activity against Helicobacter pylori EP1836 assessed as inhibition of bacterial growth; assay type: functional
[6] = test system: Helicobacter pylori; experiment: Antimicrobial activity against Helicobacter pylori EP1757 assessed as inhibition of bacterial growth; assay type: functional
[7] = test system: Helicobacter pylori; experiment: Antibacterial activity against Helicobacter pylori assessed as bacterial growth inhibition; assay type: functional
[8] = test system: Helicobacter pylori; experiment: Antibacterial activity against Helicobacter pylori assessed as diameter of zone inhibition at 12.5 to 100 ug per disk incubated for […] by disk diffusion assay; assay type: functional; conditions: dose 12.5-100 µg
[9] = test system: Helicobacter pylori; experiment: Antibacterial activity against Helicobacter pylori assessed as diameter of zone inhibition at 25 to 100 ug per disk incubated for […] by disk diffusion assay; assay type: functional; conditions: dose 25-100 µg
[10] = test system: Helicobacter pylori; experiment: Antibacterial activity against metronidazole-resistant Helicobacter pylori assessed as diameter of zone inhibition at 12.5 to 100 ug per disk by paper disk diffusion assay; assay type: functional; conditions: dose 12.5-100 µg
[11] = Inhibition of urease (unknown origin)
[12] = Plasma protein binding in human; assay type: ADME, cell-free; conditions: read-out: PPB (converted)
[13] = test system: Helicobacter pylori; experiment: Antibacterial activity against metronidazole-resistant Helicobacter pylori ATCC 43504; assay type: functional, organism-based
[14] = test system: Helicobacter pylori; experiment: Antibacterial activity against wild type Helicobacter pylori; assay type: functional
[15] = target: T2, Glutamate racemase (Helicobacter pylori J99, UniProt Q9ZLT0); experiment: Inhibition of Helicobacter pylori Glutamate racemase
T2 sequence (Q9ZLT0 whole entry): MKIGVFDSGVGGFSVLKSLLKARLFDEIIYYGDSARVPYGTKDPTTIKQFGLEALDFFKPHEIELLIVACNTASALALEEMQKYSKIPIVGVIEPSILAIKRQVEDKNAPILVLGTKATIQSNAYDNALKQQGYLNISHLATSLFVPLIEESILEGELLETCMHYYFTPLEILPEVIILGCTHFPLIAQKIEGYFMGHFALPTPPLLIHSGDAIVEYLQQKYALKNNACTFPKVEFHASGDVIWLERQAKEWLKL

[16] = test system: Helicobacter pylori; experiment: Antimicrobial activity against Helicobacter pylori assessed as inhibition of bacterial growth incubated for 72 hrs by broth dilution method; assay type: functional
[17] = Inhibition of Helicobacter pylori IMPDH incubated for 10 mins in presence of […] by multilabel reader analysis
[18] = Inhibition of Helicobacter pylori GatCAB assessed as inhibition constant
[19] = Antioxidant activity assessed as radical scavenging activity; assay type: functional
[20] = Inhibition of Helicobacter pylori IMPDH
[21] = test system: Helicobacter pylori; experiment: Antibacterial activity against Helicobacter pylori ATCC 43504 assessed as bacterial growth inhibition; assay type: functional
[22] = test system: Helicobacter pylori; experiment: Antibacterial activity against metronidazole-resistant Helicobacter pylori incubated for 72 hrs; assay type: functional
[23] = Inhibition of Helicobacter pylori IMPDH incubated for 10 mins by multilabel reader analysis
[24] = test system: Helicobacter pylori; experiment: Antibacterial activity against clinical isolate Helicobacter pylori assessed as bacterial growth inhibition incubated for 72 hrs by agar dilution method; assay type: functional
[25] = test system: Helicobacter pylori; experiment: Antibacterial activity against Helicobacter pylori P12 assessed as reduction in bacterial growth by broth microdilution method; assay type: functional
[26] = test system: Helicobacter pylori; experiment: Antibacterial activity against Helicobacter pylori SS1 assessed as reduction in bacterial growth by broth microdilution method; assay type: functional
[27] = test system: Helicobacter pylori; experiment: Inhibition of Helicobacter pylori IMPDH at 10 uM incubated for 10 mins in presence of […] by multilabel reader analysis relative to control
[28] = target: Inosine-5'-monophosphate dehydrogenase 2 (Homo sapiens) (UniProt P12268); experiment: Inhibition of human IMPDH at 10 uM incubated for 10 mins by multilabel reader analysis relative to control
[29] = test system: Helicobacter pylori; experiment: Antibacterial activity against metronidazole-resistant Helicobacter pylori assessed as diameter of zone inhibition at 16 to 32 ug per disk incubated for 2 to 10 days by disk diffusion assay; assay type: functional; conditions: dose 16-32 µg; time 2-10 day

Sequence of Inosine-5'-monophosphate dehydrogenase 2 (Homo sapiens) (P12268 2-514 limits assumed): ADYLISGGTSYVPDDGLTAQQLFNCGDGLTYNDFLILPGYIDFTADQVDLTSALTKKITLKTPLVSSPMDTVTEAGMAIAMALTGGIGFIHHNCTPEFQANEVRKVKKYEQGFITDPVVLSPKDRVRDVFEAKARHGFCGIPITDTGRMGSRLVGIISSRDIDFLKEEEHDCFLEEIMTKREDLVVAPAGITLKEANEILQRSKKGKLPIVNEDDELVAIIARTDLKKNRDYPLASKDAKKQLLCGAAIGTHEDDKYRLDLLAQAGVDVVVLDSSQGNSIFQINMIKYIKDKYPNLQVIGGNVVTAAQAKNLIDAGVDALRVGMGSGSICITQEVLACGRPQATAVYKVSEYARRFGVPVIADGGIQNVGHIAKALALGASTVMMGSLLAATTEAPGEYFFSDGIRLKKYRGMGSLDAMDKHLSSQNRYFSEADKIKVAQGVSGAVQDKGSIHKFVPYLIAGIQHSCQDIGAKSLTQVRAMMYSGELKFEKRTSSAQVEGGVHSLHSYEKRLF

Compound: O=C(CSc1nnc(-c2ccc([N+](=O)[O-])o2)s1)c1ccccc1Cl
- zone of inhibition at 50 µg/disc [1]: ≥ 20 mm

Compound: CCCCSC[C@H]1CN(Cc2c[nH]c3c(N)ncnc23)C[C@@H]1O
- pKd [2]: > 7.30

Compound: CCCSC[C@H]1CN(Cc2c[nH]c3c(N)ncnc23)C[C@@H]1O
- pKd [2]: > 7.30

Compound: COc1cc2ccc(=O)oc2cc1O[C@@H]1O[C@H](CO)[C@@H](O)[C@H](O)[C@H]1O [SCOPOLIN]
- MIC [3]: 50 µg/mL (≈ 141 µM)

Compound: C=C(C)CCC(CC1(CC=C(C)C)C(=O)C(C(CCC)CC(=O)O)=C2O[C@H](C)[C@@H](C)C(=O)C2=C1O)C(=C)C (some centres undefined)
- MIC [4]: 50 µg/mL (≈ 94.9 µM)

Compound: NC(=O)Cc1csc(SC2=C(C(=O)O)N3C(=O)[C@@H](NC(=O)Cc4ccccc4)[C@H]3SC2)n1
- MIC [5]: 0.00313 µg/mL (≈ 0.00638 µM)
- MIC [6]: 0.00078 µg/mL (≈ 0.00159 µM)

Compound: O=C1N/C(=N\c2cccs2)S/C1=C\c1ccc([N+](=O)[O-])o1
- MIC [7]: < 1.5 µg/mL

Compound: CCCNC(=O)CSc1nnc(-c2ccc([N+](=O)[O-])o2)s1
- diameter of the inhibition zone (DIZ) [8]: 33 mm
- diameter of the inhibition zone (DIZ) [9]: 10 mm

Compound: CCCCCCSC[C@H]1CN(Cc2c[nH]c3c(N)ncnc23)C[C@@H]1O
- pKd [2]: > 7.30

Compound: CC(Sc1nnc(-c2ncc([N+](=O)[O-])n2C)s1)c1ccccc1 (centres undefined)
- diameter of the inhibition zone (DIZ) [10]: >50 mm

Compound: O=C(CC(O)c1cc(Cl)ccc1OCc1ccccc1)NO (centres undefined)
- pIC50 [11]: 6.82
- fraction unbound [12]: 0.56

Compound: CCCCOC(=O)/C=C/c1ccc(O)c(O)c1 [BUTYL CAFFEATE]
- MIC [4]: 250 µg/mL (≈ 1060 µM)

Compound: CN(CCO)CC(O)COc1cccc2c(=O)c3ccccc3oc12.Cl (centres undefined)
- IC50 [13]: 5 µg/mL

Compound: Cn1cc(C#N)cc1-c1c2c(=O)n(C)c(=O)n(CC3CC3)c2nn1Cc1ccnc2ccc(Cl)cc12
- MIC [14]: 0.5 µg/mL (≈ 1 µM)
- pIC50 [15]: 7.59

Compound: CC1=C(/C=N/NC(N)=S)C(C)(C)CC=C1
- MIC90 [16]: 4 µM (≈ 0.893 µg/mL)

Compound: O=C(COc1ccc2ccccc2c1)Nc1ccc2c(c1)COC2=O
- pIC50 [17]: 5.66

Compound: CN(O)C(=O)CC(O)c1cccc(Cl)c1 (centres undefined)
- pIC50 [11]: 5.96

Compound: COc1ccc(C[C@H](N)C(=O)N[C@H]2[C@@H](O)[C@H](n3cnc4c(N(C)C)ncnc43)O[C@@H]2CO)cc1 [PUROMYCIN]
- pKi [18]: 5.40

Compound: COC1=CC(=O)c2c(c(OC)c3cc(C)oc(=O)c3c2O)C1=O
- ED50 [19]: 1.58 µg/mL (≈ 5 µM)
- MIC [7]: 64 µg/mL (≈ 202 µM)

Compound: O=C(Cn1cc(/N=N/c2cccnc2)c2ccccc21)Nc1ccc(Cl)cc1
- pIC50 [20]: 6.10

Compound: CC1=C(/C=N/N(C)C(N)=S)C(C)(C)CC=C1
- MIC90 [16]: 4 µM (≈ 0.949 µg/mL)

Compound: Cc1ncc([N+](=O)[O-])n1CCOc1cc(O)c2c(=O)c(-c3ccc(O)cc3)coc2c1
- MIC [21]: 0.39 µg/mL (≈ 0.921 µM)

Compound: O=c1oc2ccccc2cc1-c1csc(N/N=C/c2ccco2)n1
- MIC [22]: ≥ 16 µg/mL

Compound: CC1=C(/C=N/Nc2nc(-c3cccc([N+](=O)[O-])c3)cs2)C(C)(C)CC=C1
- MIC50 [16]: 2 µg/mL (≈ 5.43 µM)

Compound: O=C(Cn1cc(/N=N/c2cccnc2)c2ccccc21)Nc1ccc2ccccc2c1
- pIC50 [20]: 6.10

Compound: NNc1nc(-c2cc3ccccc3oc2=O)cs1
- MIC [22]: ≥ 16 µg/mL

Compound: CC1=C(C=O)C(C)(C)CC=C1
- MIC50 [16]: 2 µg/mL (≈ 13.3 µM)

Compound: COC1=CC(=O)c2c(cc(C)c(C(C)=O)c2O)C1=O
- MIC50 [4]: 0.3 µM (≈ 0.0781 µg/mL)
- MIC90 [4]: 0.39 µM (≈ 0.101 µg/mL)

Compound: CC[C@H]1OC(=O)[C@H](C)[C@@H](O[C@H]2C[C@@](C)(OC)[C@@H](O)[C@H](C)O2)[C@H](C)[C@@H](O[C@@H]2O[C@H](C)C[C@H](N(C)C)[C@H]2O)[C@](C)(OC)C[C@@H](C)C(=O)[C@H](C)[C@@H](O)[C@]1(C)O [CLARITHROMYCIN]
- MIC [4]: 0.78 µg/mL (≈ 1.04 µM)

Compound: Clc1ccc(Cn2cc(COc3cccc4ccccc34)nn2)cc1Cl
- pIC50 [23]: 5.90

Compound: Cn1cnc([N+](=O)[O-])c1S(=O)(=O)c1ccccc1
- MIC [24]: 32 µg/mL (≈ 120 µM)

Compound: COc1cc2ccc(=O)oc2cc1O [SCOPOLETIN]
- MIC [3]: 50 µg/mL (≈ 260 µM)

Compound: C=C(C)C(CC=C(C)C)CC1(CC=C(C)C)C(=O)C(C(CCC)CC(=O)O)=C2O[C@H](C)[C@@H](C)C(=O)C2=C1O (some centres undefined)
- MIC [4]: 12.5 µg/mL (≈ 23.7 µM)

Compound: Cn1c([N+](=O)[O-])cnc1/C=C1\S/C(=N/c2cccs2)NC1=O
- MIC [7]: < 1.5 µg/mL

Compound: CCCCCCCOC(=O)/C=C/c1ccc(O)c(O)c1
- MIC [4]: 250 µg/mL (≈ 898 µM)

Compound: CN(C)c1ncnc2c1ncn2[C@@H]1O[C@H](CO)[C@@H](NC(=O)[C@@H](N)CCS(C)(=O)=O)[C@H]1O
- pIC50 [23]: 5.90
- pKi [18]: 5.40

Compound: Cc1ncc([N+](=O)[O-])n1CCO [METRONIDAZOLE]
- ED50 [19]: 5.4 µg/mL (≈ 31.6 µM)
- MIC [7]: > 254 µg/mL
- MIC [24]: 2 µg/mL (≈ 11.7 µM)
- diameter of the inhibition zone (DIZ) [9]: 10 mm

Compound: CCOc1ccc2nc(S(N)(=O)=O)sc2c1 [ETHOXZOLAMIDE]
- MIC [25]: 200 µM (≈ 51.7 µg/mL)
- MIC [26]: 200 µM (≈ 51.7 µg/mL)

Compound: COc1ccc(-c2oc3ccccc3c(=O)c2OCC(=O)Nc2ccc3c(c2)COC3=O)cc1
- pIC50 [23]: 5.73
- inhibition [27]: > 70%
- inhibition [28]: 57%
- pIC50 [17]: 5.66

Compound: CO/N=C(/CN1CCN(c2cc3c(cc2F)c(=O)c(C(=O)O)cn3C2CC2)CC1)c1ccccc1Cl
- diameter of the inhibition zone (DIZ) [29]: 6 mm
